Ratio data for 21 molecules are collected here from ChEMBL document CHEMBL3045638, “Quantitative structure-activity relationship of terpenoid aphid antifeedants” (2008).

This experiment concerns Lipaphis erysimi. Description: Antifeedant activity against apterous adult stage of Lipaphis erysimi (mustard aphids) in compound pre-treated cabbage leaves assessed as antifeedant ratio measured after 48 hr. Type of experiment: functional.
Turning to `CCC(=O)OC1CC(C(C)(C)O)CC=C1C` (stereo unspecified), the Ratio was 0.526.

Consider `CC(=O)OC1CC(C)CCC1C(C)C` (stereo unspecified), for which the Ratio was 0.533.

Turning to `C=C(C)C1CC=C(CCOC(C)=O)CC1` (stereo unspecified), the Ratio was 0.674.

For `C=C(C)C1CC=C(CCOC(=O)CC)CC1` (stereo unspecified), the Ratio is on record as 0.701.

For the molecule `CC1=CCC(C(C)(C)O)CC1OC=O` (stereo unspecified), the Ratio was determined as 0.42.

For the molecule `CC(=O)OCCC1C2CCC(C2)C1(C)C` (stereo unspecified), the Ratio was 0.628.

Take `CCCOCCC1=CCC2CC1C2(C)C` (stereo unspecified): the Ratio came to 0.504.

With `CC1(C)C2CC=C(CCOC=O)C1C2` (stereo unspecified), the Ratio is recorded as 0.518.

Consider `CCC(CCCC1C2CCC(C2)C1(C)C)OC(C)=O` (stereo unspecified), for which the Ratio stood at 0.83.

Consider `CCC(CCC1C2CCC(C2)C1(C)C)C(C)OC(C)=O` (stereo unspecified), for which the Ratio amounted to 0.786.

Regarding `CCC(=O)OC1CC(C)CCC1C(C)C` (stereo unspecified), the Ratio worked out at 0.505.

For the molecule `CCOCCC1=CCC2CC1C2(C)C` (stereo unspecified), the Ratio is reported as 0.522.

Regarding `CC(=O)OCCC1=CCC2CC1C2(C)C` (stereo unspecified), the Ratio worked out at 0.572.

With `CCC(=O)OCCC1=CCC2CC1C2(C)C` (stereo unspecified), the Ratio was 0.63.

Consider `CC1(C)C2CC3OC3(C)C1C2` (stereo unspecified), for which the Ratio is recorded as 0.415.

In the case of `COCCC1=CCC2CC1C2(C)C` (stereo unspecified), the Ratio stood at 0.548.

As for `CC(=O)OC1CC(C(C)(C)O)CC=C1C` (stereo unspecified), the Ratio is reported as 0.476.

Take `CCCC(CCCC1C2CCC(C2)C1(C)C)OC(C)=O` (stereo unspecified): the Ratio stood at 0.813.

For `CC1CCC(C(C)C)C(O)C1` (stereo unspecified) [MENTHOL], the Ratio was 0.584.

For the molecule `CC1(C)C2CC=C(CCO)C1C2` (stereo unspecified) [Nopol], the Ratio amounted to 0.47.

On to `CC1=CCC(C(C)(C)O)CC1O` (stereo unspecified) [SOBREROL], for which the Ratio was 0.463.
